Converted amounts (≈) assume the structure as drawn.
Assays:
E. Coli ATCC 25922 = experiment: Minimum Inhibitory Concentration (MIC), modified microbroth dilution; format: cell-based; conditions: E. coli (25922), overnight incubation (18 hours); for MIC50: Escherichia coli, ATCC25922, read-out: MIC50 E. coli
[1] = system: Staphylococcus aureus ATCC 27660; experiment: as above; format: cell-based; conditions: S. aureus (27660), overnight incubation (18 hours); for MIC50: Staphylococcus aureus, ATCC27660, read-out: MIC50 S. aureus
[2] = system: Enterococcus faecalis ATCC 29212; experiment: as above; format: cell-based; conditions: E. faecalis (29212), overnight incubation (18 hours); for MIC50: Enterococcus faecalis, ATCC29212, read-out: MIC50 E. faecalis
[3] = system: Pseudomonas aeruginosa ATCC 10145; experiment: as above; format: cell-based; conditions: P. aeruginosa (10145), overnight incubation (18 hours); for MIC50: Pseudomonas aeruginosa, ATCC10145, read-out: MIC50 P. Aeruginosa
[4] = system: Klebsiella pneumoniae ATCC 13883; experiment: as above; format: cell-based; conditions: K. pneumoniae (13883), overnight incubation (18 hours); for MIC50: Klebsiella pneumoniae, ATCC13883, read-out: MIC50 K. Pnuemnoiae
[5] = Cytotoxicity colorimetric (tetrazolium) assay; format: cell-based, mouse; conditions: mouse, NIH/3T3 cells, one hour with compound in serum-free media
Experimental: (§1) Cytotoxicity of the compounds was evaluated in a colorimetric assay using a transformed human liver cell line (HepG2, HB-8065) and an embryonic mouse cell line (NIH/3T3 cells, CRL-1658). This assay measures the bioreduction of a novel tetrazolium compound to a soluble formazan product by viable cells. HepG2 cells were seeded in 96 well plates at 2×10^4 cells/well in MEM medium with 10% fetal bovine serum (FBS) 24 hours prior to use. NIH/3T3 cells were seeded in 96 well plates at 2×10^4 cells/well in DMEM medium with 10% bovine calf serum (BCS) 24 hours prior to use. Cell monolayers were rinsed in serum-free media and incubated for one hour with compounds in serum-free media. After incubation, the media is replaced with serum supplemented media and live cells were measured using the Cell Titer 96 Aqueous […] Assay kit (Promega, Madison, Wis.). EC50 values were determined using a four parameter logistic equation: Y=Bottom+(Top-Bottom)/(1+10̂((LogEC50−X)*HillSlope)).
(§2) Actual results from a representative cytotoxicity assay are shown below in Table 2. Data is expressed as EC50 in μg/mL.

[6] = Cytotoxicity colorimetric (tetrazolium) assay; format: cell-based, human; conditions: human, HepG2 cells, one hour with compound in serum-free media
Experimental: as §1, §2

SMILES	MIC50 (E. Coli ATCC 25922) [µg/mL]	MIC50 [1] [µg/mL]	MIC50 [2] [µg/mL]	MIC50 [3] [µg/mL]	MIC50 [4] [µg/mL]	MIC50 E. coli (E. Coli ATCC 25922) [µg/mL]	MIC50 S. aureus [1] [µg/mL]	MIC50 E. faecalis [2] [µg/mL]	MIC50 P. Aeruginosa [3] [µg/mL]	MIC50 K. Pnuemnoiae [4] [µg/mL]	EC50 at 1 h ([5]; NIH/3T3 cells (CRL-1658)) [µg/mL]	EC50 at 1 h ([6]; HepG2 cells (HB-8065)) [µg/mL]	EC50 at 1 h [5] [µg/mL]	EC50 at 1 h [6] [µg/mL]
NCC(CN)c1cc(Br)cc(C#Cc2cccc(C#Cc3cc(Br)cc(C(CN)CN)c3)c2)c1 [Compound 190]	1.56 (≈ 2.69 µM)	0.78 (≈ 1.34 µM)	0.39 (≈ 0.672 µM)	12.5 (≈ 21.5 µM)	3.13 (≈ 5.39 µM)	–	–	–	–	–	–	–	–	–
NC/C=C/c1cc(/C=C/CN)cc(-c2cccc(-c3cc(/C=C/CN)cc(/C=C/CN)c3)c2)c1 [Compound 117]	25 (≈ 55.5 µM)	12.5 (≈ 27.7 µM)	50 (≈ 111 µM)	50 (≈ 111 µM)	> 50	–	–	–	–	–	–	–	–	–
Cl.Cl.NCCCc1cccc(-c2cccc(-c3cccc(CCCN)c3)c2)c1 [Compound 110]	–	–	–	–	–	25	25	100	100	100	–	–	–	–
NCCCn1c2cc(-c3cccc(N(CCN)CCN)c3)ccc2c2ccc(-c3cccc(N(CCN)CCN)c3)cc21 [Compound 160]	1.56 (≈ 2.7 µM)	0.39 (≈ 0.674 µM)	6.25 (≈ 10.8 µM)	12.5 (≈ 21.6 µM)	6.25 (≈ 10.8 µM)	–	–	–	–	–	451 (≈ 779 µM)	853 (≈ 1470 µM)	–	–
NCCCn1c2ccccc2c2ccccc21 [Compound 105]	–	–	–	–	–	>100	>100	>100	>100	>100	–	–	–	–
N=C(N)NCCCOc1cc(OCCCNC(=N)N)c(-c2ccc(F)c(F)c2)cc1-c1ccc(F)c(F)c1 [Compound 119]	–	–	–	–	–	–	–	–	–	–	113 (≈ 213 µM)	–	–	–
N=C(N)NCCCc1cccc(-c2ccc3c4ccc(-c5cccc(CCCNC(=N)N)c5)cc4n(CCCNC(=N)N)c3c2)c1 [Compound 158]	3.13 (≈ 5.07 µM)	1.56 (≈ 2.53 µM)	6.25 (≈ 10.1 µM)	25 (≈ 40.5 µM)	3.13 (≈ 5.07 µM)	–	–	–	–	–	131 (≈ 212 µM)	100 (≈ 162 µM)	–	–
NCC#Cc1cc(C#CCN)cc(-c2cccc(-c3cc(C#CCN)cc(C#CCN)c3)c2)c1 [Compound 124]	50 (≈ 113 µM)	50 (≈ 113 µM)	25 (≈ 56.5 µM)	50 (≈ 113 µM)	> 50	–	–	–	–	–	192 (≈ 435 µM)	–	–	–
N=C(N)NCCc1cc(CCNC(=N)N)cc(-c2csc(-c3cccc(-c4nc(-c5cc(CCNC(=N)N)cc(CCNC(=N)N)c5)cs4)c3)n2)c1 [Compound 137]	12.5 (≈ 17 µM)	3.13 (≈ 4.25 µM)	12.5 (≈ 17 µM)	12.5 (≈ 17 µM)	> 50	–	–	–	–	–	26.6 (≈ 36.1 µM)	55.6 (≈ 75.4 µM)	–	–
N=C(N)NCCCOc1cc(OCCCNC(=N)N)c(-c2cc(F)c(F)c(F)c2)cc1-c1cc(F)c(F)c(F)c1 [Compound 120]	–	–	–	–	–	–	–	–	–	–	99 (≈ 174 µM)	–	–	–
NCCCN1c2ccc(N)cc2Sc2ccc(C(F)(F)F)cc21 [Compound 104]	100 (≈ 295 µM)	100 (≈ 295 µM)	> 100	> 100	> 100	–	–	–	–	–	–	–	–	–
N=C(N)NCCCOc1cc(OCCCNC(=N)N)cc(-c2ccc3sc4ccc(-c5cc(OCCCN)c(OCCCN)c(OCCCN)c5)cc4c3c2)c1 [Compound 185]	–	–	–	–	–	6.25 (≈ 7.95 µM)	0.78 (≈ 0.992 µM)	1.56 (≈ 1.98 µM)	25 (≈ 31.8 µM)	12.5 (≈ 15.9 µM)	–	–	–	–
N=C(N)NCCC#Cc1cc(-c2cc(OCCCNC(=N)N)cc(-c3cc(C#CCCNC(=N)N)cc(C(F)(F)F)c3)c2)cc(C(F)(F)F)c1 [Compound 121]	–	–	–	–	–	–	–	–	–	–	37 (≈ 52.9 µM)	–	–	–
NCCCN1c2ccccc2Sc2ccc(C(F)(F)F)cc21 [Compound 101]	25 (≈ 77.1 µM)	25 (≈ 77.1 µM)	12.5 (≈ 38.5 µM)	> 100	50 (≈ 154 µM)	–	–	–	–	–	9 (≈ 27.7 µM)	–	–	–
N=C(N)NCCCOc1cc(-c2ccc3sc4ccc(-c5cc(OCCCNC(=N)N)c(OCCCNC(=N)N)c(OCCCNC(=N)N)c5)cc4c3c2)cc(OCCCNC(=N)N)c1OCCCNC(=N)N [Compound 186]	–	–	–	–	–	12.5 (≈ 12.2 µM)	0.78 (≈ 0.759 µM)	3.13 (≈ 3.05 µM)	12.5 (≈ 12.2 µM)	6.25 (≈ 6.08 µM)	–	–	–	–
NCCCn1c2cc(-c3cccc(CN(CCN)CCN)c3)ccc2c2ccc(-c3cccc(CN(CCN)CCN)c3)cc21 [Compound 178]	3.13 (≈ 5.16 µM)	0.39 (≈ 0.643 µM)	12.5 (≈ 20.6 µM)	12.5 (≈ 20.6 µM)	12.5 (≈ 20.6 µM)	–	–	–	–	–	–	228 (≈ 376 µM)	–	–

SMILES	MIC50 (E. Coli ATCC 25922) [µg/mL]	MIC50 [1] [µg/mL]	MIC50 [2] [µg/mL]	MIC50 [3] [µg/mL]	MIC50 [4] [µg/mL]	MIC50 E. coli (E. Coli ATCC 25922) [µg/mL]	MIC50 S. aureus [1] [µg/mL]	MIC50 E. faecalis [2] [µg/mL]	MIC50 P. Aeruginosa [3] [µg/mL]	MIC50 K. Pnuemnoiae [4] [µg/mL]	EC50 at 1 h ([5]; NIH/3T3 cells (CRL-1658)) [µg/mL]	EC50 at 1 h ([6]; HepG2 cells (HB-8065)) [µg/mL]	EC50 at 1 h [5] [µg/mL]	EC50 at 1 h [6] [µg/mL]
NCCNc1ccc(-c2ccc3sc4ccc(-c5ccc(NCCN)cc5)cc4c3c2)cc1 [Compound 173]	–	–	–	–	–	6.25 (≈ 13.8 µM)	0.195 (≈ 0.431 µM)	1.56 (≈ 3.45 µM)	>50	3.13 (≈ 6.92 µM)	–	–	–	–
NCCc1cc(CCN)cc(-c2cc(F)cc(-c3cc(F)cc(-c4cc(CCN)cc(CCN)c4)c3)c2)c1 [Compound 150]	–	–	–	–	–	–	–	–	–	–	–	–	427 (≈ 830 µM)	486 (≈ 944 µM)
NCCCN1c2ccc(NC(=O)Nc3ccc4c(c3)Sc3ccc(C(F)(F)F)cc3N4CCCN)cc2Sc2ccc(C(F)(F)F)cc21 [Compound 143]	0.78 (≈ 1.11 µM)	0.78 (≈ 1.11 µM)	1.56 (≈ 2.21 µM)	12.5 (≈ 17.7 µM)	3.13 (≈ 4.44 µM)	–	–	–	–	–	–	–	–	–
N=C(N)NC/C=C/c1cc(/C=C/CNC(=N)N)cc(-c2cccc(-c3cc(/C=C/CNC(=N)N)cc(/C=C/CNC(=N)N)c3)c2)c1 [Compound 118]	0.78 (≈ 1.26 µM)	0.78 (≈ 1.26 µM)	12.5 (≈ 20.2 µM)	12.5 (≈ 20.2 µM)	12.5 (≈ 20.2 µM)	–	–	–	–	–	–	–	–	–
NCCCn1c2cc(Br)ccc2c2ccc(Br)cc21 [Compound 106]	12.5 (≈ 32.7 µM)	12.5 (≈ 32.7 µM)	–	100 (≈ 262 µM)	25 (≈ 65.4 µM)	–	–	–	–	–	107 (≈ 280 µM)	61.9 (≈ 162 µM)	–	–
CCn1c2ccc(-c3cccc(N)c3)cc2c2cc(-c3cccc(N)c3)ccc21 [Compound 176]	–	–	–	–	–	12.5 (≈ 33.1 µM)	0.39 (≈ 1.03 µM)	>50	12.5 (≈ 33.1 µM)	>50	–	–	–	–
N=C(N)NCC#Cc1cc(C#CCNC(=N)N)cc(-c2cccc(-c3cc(C#CCNC(=N)N)cc(C#CCNC(=N)N)c3)c2)c1 [Compound 123]	3.13 (≈ 5.13 µM)	0.78 (≈ 1.28 µM)	0.78 (≈ 1.28 µM)	6.25 (≈ 10.2 µM)	12.5 (≈ 20.5 µM)	–	–	–	–	–	115 (≈ 188 µM)	–	–	–
NCCCn1cc(-c2ccc3oc4ccc(-c5cnn(CCCN)c5)cc4c3c2)cn1 [Compound 157]	50 (≈ 121 µM)	6.25 (≈ 15.1 µM)	25 (≈ 60.3 µM)	25 (≈ 60.3 µM)	–	–	–	–	–	–	713 (≈ 1720 µM)	461 (≈ 1110 µM)	–	–
NCCCN1c2ccccc2Sc2ccc(Cl)cc21 [Compound 103]	> 100	25 (≈ 86 µM)	> 100	> 100	> 100	–	–	–	–	–	–	–	–	–
NCCn1cc(-c2cccc(-c3cn(CCN)nn3)c2)nn1 [Compound 109]	–	–	–	–	–	>100	>100	>100	>100	>100	–	–	–	–
N=C(N)NCCc1cc(CCNC(=N)N)cc(-c2ccc(-c3cccc(-c4ccc(-c5cc(CCNC(=N)N)cc(CCNC(=N)N)c5)s4)c3)s2)c1 [Compound 139]	6.25 (≈ 8.5 µM)	0.39 (≈ 0.531 µM)	0.78 (≈ 1.06 µM)	12.5 (≈ 17 µM)	3.13 (≈ 4.26 µM)	–	–	–	–	–	–	–	–	–
NCCCCn1cc(-c2cccc(-c3cn(CCCCN)nn3)c2)nn1 [Compound 107]	–	–	–	–	–	>100	>100	>100	>100	>100	–	–	–	–
NCCCn1cc(-c2cccc(-c3cn(CCCN)nn3)c2)nn1 [Compound 108]	–	–	–	–	–	>100	>100	>100	>100	>100	–	–	–	–
N=C(N)Nc1ccc(-c2nnc(-c3ccc(NC(=N)N)cc3)o2)cc1 [Compound 127]	> 100	50 (≈ 149 µM)	> 100	> 100	> 100	–	–	–	–	–	–	–	–	–
O=C(Nc1ccc(-c2ccc(N3CCNCC3)nc2)cc1F)Nc1ccc(-c2ccc(N3CCNCC3)nc2)cc1F [Compound 141]	6.25 (≈ 11 µM)	25 (≈ 43.8 µM)	–	12.5 (≈ 21.9 µM)	25 (≈ 43.8 µM)	–	–	–	–	–	404 (≈ 708 µM)	24.4 (≈ 42.8 µM)	–	–
NCCc1cc(CCN)cc(-c2ccc(-c3cccc(-c4ccc(-c5cc(CCN)cc(CCN)c5)s4)c3)s2)c1 [Compound 138]	12.5 (≈ 22.1 µM)	0.39 (≈ 0.688 µM)	1.56 (≈ 2.75 µM)	12.5 (≈ 22.1 µM)	25 (≈ 44.1 µM)	–	–	–	–	–	–	–	–	–

Reference: US20140308317A1, “Polymeric Compounds And Methods Of Making And Using The Same” (CELLCEUTIX CORPORATION, priority 2012, published 2014)
